Measurements from patent US20100184699A1, “Peptide Derived From Prostate-Related Protein As Cancer Vaccine Candidate For Prostate Cancer Patient Who Is Positive For Hla-A3 Super-Type Allele Molecule” (priority 2005, published 2010).
Where “and” joins values, the source holds several entries; their conditions need not be identical. Identical values can stand only once. Like-named read-outs stand apart in the source and are kept apart here.

Columns and labels:
[1] = tested on: peptide-specific IgG in plasma of prostate cancer patients and healthy donors; assay: Detection of peptide-specific IgG in plasma by ELISA; format: binding, human; conditions: for IgG reactive to peptide in plasma: 1:100-diluted plasma; for frequency of detection of peptide-reactive IgG: plasma of prostate cancer patients, compared within PSA, PAP or PSMA peptides
[2] = tested on: C1R-A11, -A31 or -A33 cells pulsed with corresponding peptide; assay: Induction of peptide-specific CTLs from PBMCs (IFN-γ ELISA); format: cell-based, human; conditions: for IFN-γ production, HIV peptide background subtracted: day 15, significant values only
[3] = Prostate cancer patient 12, A11
[4] = Prostate cancer patient 13, A11
[5] = Prostate cancer patient 14, A33
[6] = Prostate cancer patient 17, A33
[7] = Prostate cancer patient 19, A33
[8] = Prostate cancer patient 20, A33

| Substance | IgG reactive to peptide in plasma, Total (positive/tested) ([1]; Healthy donors) | IgG reactive to peptide in plasma ([1]; Prostate cancer patient 4, A31) | IgG reactive to peptide in plasma ([1]; Prostate cancer patient 5, A31) | IgG reactive to peptide in plasma ([1]; Prostate cancer patient 6, A31) | IgG reactive to peptide in plasma ([1]; Prostate cancer patient 9, A11) | IgG reactive to peptide in plasma [1, 3] | IgG reactive to peptide in plasma [1, 5] | IgG reactive to peptide in plasma [1, 8] | IgG reactive to peptide in plasma, Total (positive/tested) ([1]; Prostate cancer patients) | frequency of detection of peptide-reactive IgG [1] | Total (positive / tested) [2] | other results |
| --- | --- | --- | --- | --- | --- | --- | --- | --- | --- | --- | --- | --- |
| EIASKFSER [PSMA 641-649] | 1/9 | + (IgG reactive to a corresponding peptide was judged to be positive when a difference of the optical density (OD) in a 1:100-diluted plasma was more than 100) | + (IgG reactive to a corresponding peptide was judged to be positive when a difference of the optical density (OD) in a 1:100-diluted plasma was more than 100) | + (IgG reactive to a corresponding peptide was judged to be positive when a difference of the optical density (OD) in a 1:100-diluted plasma was more than 100) | + (IgG reactive to a corresponding peptide was judged to be positive when a difference of the optical density (OD) in a 1:100-diluted plasma was more than 100) | + (IgG reactive to a corresponding peptide was judged to be positive when a difference of the optical density (OD) in a 1:100-diluted plasma was more than 100) | + (IgG reactive to a corresponding peptide was judged to be positive when a difference of the optical density (OD) in a 1:100-diluted plasma was more than 100) | + (IgG reactive to a corresponding peptide was judged to be positive when a difference of the optical density (OD) in a 1:100-diluted plasma was more than 100) | 13/20 | more frequently | 1/13 and 2/9 | IgG reactive to peptide in plasma ([1]; Healthy donor 9, A11): + (IgG reactive to a corresponding peptide was judged to be positive when a difference of the optical density (OD) in a 1:100-diluted plasma was more than 100); IgG reactive to peptide in plasma ([1]; Prostate cancer patient 8, A11): + (IgG reactive to a corresponding peptide was judged to be positive when a difference of the optical density (OD) in a 1:100-diluted plasma was more than 100); IgG reactive to peptide in plasma ([1]; Prostate cancer patient 10, A11): + (IgG reactive to a corresponding peptide was judged to be positive when a difference of the optical density (OD) in a 1:100-diluted plasma was more than 100); IgG reactive to peptide in plasma [1, 4]: + (IgG reactive to a corresponding peptide was judged to be positive when a difference of the optical density (OD) in a 1:100-diluted plasma was more than 100); IgG reactive to peptide in plasma [1, 6]: + (IgG reactive to a corresponding peptide was judged to be positive when a difference of the optical density (OD) in a 1:100-diluted plasma was more than 100); IgG reactive to peptide in plasma ([1]; Prostate cancer patient 18, A33): + (IgG reactive to a corresponding peptide was judged to be positive when a difference of the optical density (OD) in a 1:100-diluted plasma was more than 100); IgG reactive to peptide in plasma [1, 7]: + (IgG reactive to a corresponding peptide was judged to be positive when a difference of the optical density (OD) in a 1:100-diluted plasma was more than 100) |
| QPWQVLVASR (PSA 36-45) [PSA-derived peptide] | 2/8 | – | – | – | – | – | – | – | 0/20 | less frequently | 1/13 and 1/9 | IgG reactive to peptide in plasma ([1]; Healthy donor 4, A31): + (IgG reactive to a corresponding peptide was judged to be positive when a difference of the optical density (OD) in a 1:100-diluted plasma was more than 100); IgG reactive to peptide in plasma ([1]; Healthy donor 12, A31): + (IgG reactive to a corresponding peptide was judged to be positive when a difference of the optical density (OD) in a 1:100-diluted plasma was more than 100) |
| LFLLFFWLDR (PAP 19-28) [PAP-derived peptide] | – | – | – | – | – | – | – | – | – | less frequently | 1/13 and 2/9 | – |
| NVKNLYEKVK (Flu-derived peptide) [reference compound] | – | – | – | – | – | – | – | – | – | – | 8/13 and 5/9 | – |
| LLGPGRPYR (TRP2-derived peptide) [reference compound] | – | – | – | – | – | – | – | – | – | – | – | IFN-γ production, HIV peptide background subtracted ([2]; healthy donor 1, A31): 143 pg/mL; IFN-γ production, HIV peptide background subtracted ([2]; healthy donor 4, A31): 180 pg/mL; IFN-γ production, HIV peptide background subtracted ([2]; healthy donor 6, A33): 90 pg/mL; IFN-γ production, HIV peptide background subtracted ([2]; healthy donor 9, A11): 182 pg/mL; IFN-γ production, HIV peptide background subtracted ([2]; healthy donor 10, A11): 207 pg/mL; IFN-γ production, HIV peptide background subtracted ([2]; healthy donor 14, A11): 94 pg/mL; Total (positive / tested) ([2]; healthy donors): 6/9; IFN-γ production, HIV peptide background subtracted ([2]; prostate cancer patient 9, A11): 155 pg/mL; IFN-γ production, HIV peptide background subtracted ([2]; prostate cancer patient 15, A33): 292 pg/mL; IFN-γ production, HIV peptide background subtracted ([2]; prostate cancer patient 17, A33): 1093 pg/mL; IFN-γ production, HIV peptide background subtracted ([2]; prostate cancer patient 19, A33): 115 pg/mL; IFN-γ production, HIV peptide background subtracted ([2]; prostate cancer patient 22, A31): 115 pg/mL; Total (positive / tested) ([2]; prostate cancer patients): 5/13 |
| PSMA 456-463 (IEGNYTLR; UniProt Q04609 456-463, looked up, fragment) | 0/9 | + (IgG reactive to a corresponding peptide was judged to be positive when a difference of the optical density (OD) in a 1:100-diluted plasma was more than 100) | + (IgG reactive to a corresponding peptide was judged to be positive when a difference of the optical density (OD) in a 1:100-diluted plasma was more than 100) | + (IgG reactive to a corresponding peptide was judged to be positive when a difference of the optical density (OD) in a 1:100-diluted plasma was more than 100) | + (IgG reactive to a corresponding peptide was judged to be positive when a difference of the optical density (OD) in a 1:100-diluted plasma was more than 100) | + (IgG reactive to a corresponding peptide was judged to be positive when a difference of the optical density (OD) in a 1:100-diluted plasma was more than 100) | + (IgG reactive to a corresponding peptide was judged to be positive when a difference of the optical density (OD) in a 1:100-diluted plasma was more than 100) | + (IgG reactive to a corresponding peptide was judged to be positive when a difference of the optical density (OD) in a 1:100-diluted plasma was more than 100) | 9/20 | – | – | IgG reactive to peptide in plasma [1, 6]: + (IgG reactive to a corresponding peptide was judged to be positive when a difference of the optical density (OD) in a 1:100-diluted plasma was more than 100); IgG reactive to peptide in plasma [1, 7]: + (IgG reactive to a corresponding peptide was judged to be positive when a difference of the optical density (OD) in a 1:100-diluted plasma was more than 100) |
| DLVYVNYAR (PSMA 173-181) [PSMA-derived peptide] | 0/9 | + (IgG reactive to a corresponding peptide was judged to be positive when a difference of the optical density (OD) in a 1:100-diluted plasma was more than 100) | + (IgG reactive to a corresponding peptide was judged to be positive when a difference of the optical density (OD) in a 1:100-diluted plasma was more than 100) | + (IgG reactive to a corresponding peptide was judged to be positive when a difference of the optical density (OD) in a 1:100-diluted plasma was more than 100) | – | + (IgG reactive to a corresponding peptide was judged to be positive when a difference of the optical density (OD) in a 1:100-diluted plasma was more than 100) | – | + (IgG reactive to a corresponding peptide was judged to be positive when a difference of the optical density (OD) in a 1:100-diluted plasma was more than 100) | 5/20 | – | – | – |
| VYIRSTDVDR (PAP 102-111) [PAP-derived peptide] | 0/9 | – | – | – | – | – | + (IgG reactive to a corresponding peptide was judged to be positive when a difference of the optical density (OD) in a 1:100-diluted plasma was more than 100) | – | 2/20 | – | – | IgG reactive to peptide in plasma [1, 4]: + (IgG reactive to a corresponding peptide was judged to be positive when a difference of the optical density (OD) in a 1:100-diluted plasma was more than 100) |
| PSMA 247-265 (NLPGGGVQRGNILNLNGAG; UniProt Q04609 247-265, looked up, fragment) | 0/9 | – | – | + (IgG reactive to a corresponding peptide was judged to be positive when a difference of the optical density (OD) in a 1:100-diluted plasma was more than 100) | + (IgG reactive to a corresponding peptide was judged to be positive when a difference of the optical density (OD) in a 1:100-diluted plasma was more than 100) | + (IgG reactive to a corresponding peptide was judged to be positive when a difference of the optical density (OD) in a 1:100-diluted plasma was more than 100) | – | + (IgG reactive to a corresponding peptide was judged to be positive when a difference of the optical density (OD) in a 1:100-diluted plasma was more than 100) | 6/20 | – | – | IgG reactive to peptide in plasma ([1]; Prostate cancer patient 8, A11): + (IgG reactive to a corresponding peptide was judged to be positive when a difference of the optical density (OD) in a 1:100-diluted plasma was more than 100) |
| PSMA 370-378 (RYVILGGHR; PSMA 370-378) | 0/9 | – | + (IgG reactive to a corresponding peptide was judged to be positive when a difference of the optical density (OD) in a 1:100-diluted plasma was more than 100) | – | – | – | – | + (IgG reactive to a corresponding peptide was judged to be positive when a difference of the optical density (OD) in a 1:100-diluted plasma was more than 100) | 2/20 | – | – | – |
